Assay results: article PMC11997999, “Uncovering α-Selectivity for Liver X Receptor Agonists for Lipotoxic Cancer Therapies” (Journal of Medicinal Chemistry, 2025)

What was measured:
LXRβ LBD (GST) = biological target: T1, LXRβ LBD (GST) (Homo sapiens, UniProt P55055); experiment: Time-resolved LXR FRET assay (LanthaScreen TR-FRET LXRβ assay kit); type: biochemical; details: for EC50: 10 nM LXRβ LBD (GST), read after 6 h, R^2 of fit given, read-out: TR-FRET activity (EC50) LXRβ
T1 construct: 5 nM LXRα LBD (GST); 10 nM LXRβ LBD (GST); purchased ThermoFisher Scientific PV4658
T1 sequence (P55055 222-460 limits assumed): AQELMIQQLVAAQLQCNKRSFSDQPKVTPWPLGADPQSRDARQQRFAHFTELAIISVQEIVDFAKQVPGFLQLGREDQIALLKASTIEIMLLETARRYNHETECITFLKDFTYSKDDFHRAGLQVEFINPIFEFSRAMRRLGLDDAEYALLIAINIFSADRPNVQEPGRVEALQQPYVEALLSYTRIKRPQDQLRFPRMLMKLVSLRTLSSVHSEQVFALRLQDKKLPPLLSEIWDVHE
Description: (§1) The biochemical TR-FRET assays were performed using the LanthaScreen TR-FRET LXRα Coactivator Assay Kit, goat (ThermoFisher Scientific, PV4655), and the LanthaScreen TR-FRET LXRβ assay kit, goat (ThermoFisher Scientific, PV4658), according to the manufacturer’s instructions using the following concentrations: 5 nM LXRα LBD (GST); 10 nM LXRβ LBD (GST); 500 nM fluorescein-TRAP220/DRIP-2; 200 nM fluorescein-D22; 10 nM Tb anti-GST antibody. The TR-FRET signals were measured after 6 h using a TECAN SPARK multimode microplate reader with the following settings: first excitation wavelength: 360 nm (bandwidth 35 nm), first emission wavelength: 485 nm (bandwidth 20 nm); second excitation wavelength: 360 nm (bandwidth 35 nm), second emission wavelength: 535 nm (bandwidth 25 nm); integration time: 200 μs; lag time: 100 μs; settle time: 0 ms.

LXRβ = biological target: T2, LXRβ (Homo sapiens, UniProt P55055); experiment: LXRβ-specific LXRE-GFP reporter assay in Hep3B cells (NR1H3 knockout); type: cell-based; details: 48h of treatment, GFP by FACS
T2 construct: To measure the activity of the remaining isoform under treatment; endogenous in cells; host or cells: Hep3B (NR1H3 knockout, LXRE-GFP reporter)
T2 sequence (P55055 1-460): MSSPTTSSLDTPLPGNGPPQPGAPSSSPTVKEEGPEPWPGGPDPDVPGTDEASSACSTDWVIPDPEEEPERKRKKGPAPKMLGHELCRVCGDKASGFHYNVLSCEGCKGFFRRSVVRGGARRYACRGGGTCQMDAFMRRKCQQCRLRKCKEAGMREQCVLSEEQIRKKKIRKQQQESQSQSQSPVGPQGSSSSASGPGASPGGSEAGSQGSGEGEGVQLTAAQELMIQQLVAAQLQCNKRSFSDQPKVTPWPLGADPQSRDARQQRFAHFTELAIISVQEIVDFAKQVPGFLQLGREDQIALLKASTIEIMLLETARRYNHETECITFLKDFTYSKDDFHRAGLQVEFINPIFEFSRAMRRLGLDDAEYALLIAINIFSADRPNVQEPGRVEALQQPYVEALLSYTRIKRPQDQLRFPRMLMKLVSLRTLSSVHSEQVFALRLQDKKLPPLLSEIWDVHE

LXRα LBD (GST) = biological target: T3, LXRα LBD (GST) (Homo sapiens, UniProt Q13133); experiment: Time-resolved LXR FRET assay (LanthaScreen TR-FRET LXRα Coactivator Assay Kit); type: biochemical; details: for EC50: 5 nM LXRα LBD (GST), read after 6 h, R^2 of fit given, read-out: TR-FRET activity (EC50) LXRα
T3 construct: 5 nM LXRα LBD (GST); 10 nM LXRβ LBD (GST); purchased ThermoFisher Scientific PV4655
T3 sequence (Q13133 209-447 limits assumed): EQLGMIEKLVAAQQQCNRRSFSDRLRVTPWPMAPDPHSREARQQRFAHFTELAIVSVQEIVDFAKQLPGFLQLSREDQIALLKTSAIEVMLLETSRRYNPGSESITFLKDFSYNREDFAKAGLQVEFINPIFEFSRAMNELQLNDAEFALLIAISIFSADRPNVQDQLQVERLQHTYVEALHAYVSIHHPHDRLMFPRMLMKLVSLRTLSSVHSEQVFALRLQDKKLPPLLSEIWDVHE
Description: as §1

LXRα = biological target: T4, LXRα (Homo sapiens, UniProt Q13133); experiment: LXRα-specific LXRE-GFP reporter assay in Hep3B cells (NR1H2 knockout); type: cell-based; details: 48h of treatment, GFP by FACS
T4 construct: To measure the activity of the remaining isoform under treatment; endogenous in cells; host or cells: Hep3B (NR1H2 knockout, LXRE-GFP reporter)
T4 sequence (Q13133 1-447): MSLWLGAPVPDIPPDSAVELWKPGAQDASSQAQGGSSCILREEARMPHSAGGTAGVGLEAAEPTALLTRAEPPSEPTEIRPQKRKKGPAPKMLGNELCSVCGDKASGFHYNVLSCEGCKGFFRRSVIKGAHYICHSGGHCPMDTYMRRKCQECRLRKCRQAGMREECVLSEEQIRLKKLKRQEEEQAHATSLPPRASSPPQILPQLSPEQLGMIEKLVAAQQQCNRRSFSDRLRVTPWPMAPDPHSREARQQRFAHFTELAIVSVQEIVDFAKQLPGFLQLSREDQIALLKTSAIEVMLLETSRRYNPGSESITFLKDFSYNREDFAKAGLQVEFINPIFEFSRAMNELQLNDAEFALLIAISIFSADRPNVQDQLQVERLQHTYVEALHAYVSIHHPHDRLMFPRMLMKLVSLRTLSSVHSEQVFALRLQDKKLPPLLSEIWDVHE

Hep3B cells = experiment: Cell viability analysis in Hep3B cells (CellTiter-Glo); type: cell-based, human; details: 5 d, 2 μM
Description: To determine the therapeutic efficacy of compound 40 in HCC cells, we next tested its effect on Hep3B cell viability in combination with the DFG-out Raf inhibitor sorafenib (2 μM).
For organoid treatment studies, digestion of organoids was performed using TrypLE Express (Gibco) supplemented with 100 μg/mL DNaseI and 10.5 μM Y-27632 dihydrochloride (Invitrogen) at 37 °C, and afterward, single-cells were plated in white 96 well plates (Sarstedt) in a mixture of 10% Matrigel (Growth Factor Reduced (GFR) Matrigel, Corning) in culture medium. Cell viability was determined after 5 days of treatment using the CellTiter-Glo 3D Cell Viability Assay Kit (Promega). Cell viability of Hep3B, AML12, and BNL CL.2 cells was determined after 5 days of treatment in white 96 well plates (Sarstedt) using the CellTiter-Glo 2.0 Cell Viability Assay Kit (Promega). AML12 and BNL CL.2 cells were also obtained from the American Type Culture Collection. The luminescence signal was measured using an […] M PLEX plate reader (Tecan) and the Tecan i-control software (v3.9.1). Sodium oleate (Selleckchem) was dissolved in methanol and added to cells at a final concentration of 200 μM.

[1] = test system: Akt1^Myr; Myc^OE HCC organoids; experiment: Cell viability analysis in HCC organoids (CellTiter-Glo 3D); type: cell-based, murine; details: 5d, with 4 μM sorafenib
From the text: Finally, we analyzed the efficacy of compound 40 in preclinical treatment studies in three-dimensional liver cancer organoid cultures. HCC organoids driven by myristoylated Akt1 and overexpressed Myc (Akt1^Myr; Myc^OE) were isolated from murine liver tumors and subjected to monotherapies of sorafenib, compound 40, or a combination thereof (Figure 7C). The therapeutic outcome was side-by-side compared with combinatorial therapies comprising the established agonists T0901317 (1) and GW3965 (2). […] Isolation of murine HCC organoid cultures was performed from liver tumors derived from C57BL/6 mice using established protocols.[26] The animal experiments were approved by committees of the regional authority of the state of Baden-Wuerttemberg (Regierungspraesidium Tuebingen, authorization number M15/18G) as appropriate. After digestion, the organoids were embedded in 100% Growth Factor Reduced (GFR) MatrigelTM (Corning) and cultured at 37 °C and 5% CO2 in HCC organoid medium supplemented with nicotinamide (10 mM), N-acetylcystein (1.25 mM), human HGF (50 ng/mL), human FGF-10 (100 ng/mL), human R-Spondin (0.5 μg/mL), forskolin (10 μM), A83- 01 (0.5 μM), murine Noggin (50 ng/mL), gastrin I (10 nM), human BMP-7 (25 ng/mL), human Wnt3a (100 ng/mL), B27 supplement (1×) and N2 supplement (1×). The cultures were split by mechanical dissociation every 3 to 4 days. […] Cell viability was determined after 5 days of treatment using the CellTiter-Glo 3D Cell Viability Assay Kit (Promega). Cell viability of Hep3B, AML12, and BNL CL.2 cells was determined after 5 days of treatment in white 96 well plates (Sarstedt) using the CellTiter-Glo 2.0 Cell Viability Assay Kit (Promega). […] The luminescence signal was measured using an […] M PLEX plate reader (Tecan) and the Tecan i-control software (v3.9.1). […]

[2] = statement made for both isoforms

| Compound | EC50 (LXRβ LBD (GST)) | EC50 (LXRβ) | EC50 (LXRα LBD (GST)) | EC50 (LXRα) | TR-FRET activity on LXRβ, in words (LXRβ LBD (GST); [2]) | TR-FRET activity on LXRα, in words (LXRα LBD (GST); [2]) | therapeutic effect on cell viability, sorafenib monotherapy (Hep3B cells) | therapeutic efficacy (cell viability) in combination with sorafenib [1] |
| --- | --- | --- | --- | --- | --- | --- | --- | --- |
| CC(C)(C)N1C(=O)C(Nc2ccc(N3CCCCC3)cc2)=C(c2ccccc2)C1=O [Compound 51, 1-(tert-Butyl)-3-phenyl-4-((4-(piperidin-1-yl)phenyl)amino)-1H-pyrrole-2,5-dione] | 156 nM | 113 nM | 36 nM | 19 nM | – | – | – | – |
| CNC(=O)c1cc(Oc2ccc(NC(=O)Nc3ccc(Cl)c(C(F)(F)F)c3)cc2)ccn1 [sorafenib, reference compound] | – | – | – | – | – | – | only a low therapeutic effect | – |
| O=C(O)Cc1cccc(OCCCN(Cc2cccc(C(F)(F)F)c2Cl)CC(c2ccccc2)c2ccccc2)c1 [GW3965 (2), reference compound] | 24 nM | 40 nM | 87 nM | 320 nM | – | – | – | dose-dependent response |
| O=S(=O)(c1ccccc1)N(CC(F)(F)F)c1ccc(C(O)(C(F)(F)F)C(F)(F)F)cc1 [T0901317 (1)] | – | – | – | – | – | – | – | dose-dependent response |
| COc1ccc(NC2=C(c3ccccc3)C(=O)N(Cc3ccc(C)cc3)C2=O)cc1 [Compound 17, 3-((4-Methoxyphenyl)amino)-1-(4-methylbenzyl)-4-phenyl-1H-pyrrole-2,5-dione] | 332 nM | – | 579 nM | – | – | – | – | – |
| O=C1C(Nc2ccc(O)cc2)=C(c2ccccc2)C(=O)N1Cc1ccccc1 [Compound 33, 1-Benzyl-3-((4-hydroxyphenyl)amino)-4-phenyl-1H-pyrrole-2,5-dione] | 206 nM | – | 390 nM | – | – | – | – | – |

Now from value to molecule, other results behind:

| EC50 (LXRβ LBD (GST)) | EC50 (LXRβ) | EC50 (LXRα LBD (GST)) | EC50 (LXRα) | TR-FRET activity on LXRβ, in words (LXRβ LBD (GST); [2]) | TR-FRET activity on LXRα, in words (LXRα LBD (GST); [2]) | Compound | therapeutic effect on cell viability, sorafenib monotherapy (Hep3B cells) | therapeutic efficacy (cell viability) in combination with sorafenib [1] |
| --- | --- | --- | --- | --- | --- | --- | --- | --- |
| 120 nM | 1250 nM | 630 nM | 1480 nM | – | – | NC1CCN(c2ccc(NC3=C(c4ccccc4)C(=O)N(Cc4ccccc4)C3=O)cc2)CC1 [Compound 46, 3-((4-(4-Aminopiperidin-1-yl)phenyl)amino)-1-benzyl-4-phenyl-1H-pyrrole-2,5-dione] | – | – |
| 180 nM | 248 nM | 154 nM | 99 nM | – | – | COc1ccc(NC2=C(c3ccccc3)C(=O)N(Cc3ccccc3)C2=O)cc1 [GSK3987 (3), 1-Benzyl-3-((4-methoxyphenyl)amino)-4-phenyl-1H-pyrrole-2,5-dione, reference compound] | – | – |
| > 3000 nM | – | > 3000 nM | – | no activity | no activity | COc1ccc(NC2=C(c3ccccc3)C(=O)NC2=O)cc1 [Compound 25, 3-((4-Methoxyphenyl)amino)-4-phenyl-1H-pyrrole-2,5-dione] | – | – |
| > 3000 nM | – | > 3000 nM | – | – | – | COc1ccc(NC2=C(c3ccccc3)C(=O)N(Cc3ccc(C(C)(C)C)cc3)C2=O)cc1 [Compound 20, 1-(4-(tert-Butyl)benzyl)-3-((4-methoxyphenyl)amino)-4-phenyl-1H-pyrrole-2,5-dione] | – | – |
| 163 nM | – | 342 nM | – | – | – | COc1ccc(NC2=C(c3ccccc3)C(=O)N(CC3CC3)C2=O)cc1 [Compound 23, 1-(Cyclopropylmethyl)-3-((4-methoxyphenyl)amino)-4-phenyl-1H-pyrrole-2,5-dione] | – | – |
